Broadly, the Kd is a measure of binding affinity in units of concentration. A high value points to a looser complex.

Common to all, as to assay type: binding
Experiment [1] addresses T1, yCBS (yeast cystathionine β-synthase) (Saccharomyces cerevisiae, UniProt P32582).
T1 sequence (P32582 1-507): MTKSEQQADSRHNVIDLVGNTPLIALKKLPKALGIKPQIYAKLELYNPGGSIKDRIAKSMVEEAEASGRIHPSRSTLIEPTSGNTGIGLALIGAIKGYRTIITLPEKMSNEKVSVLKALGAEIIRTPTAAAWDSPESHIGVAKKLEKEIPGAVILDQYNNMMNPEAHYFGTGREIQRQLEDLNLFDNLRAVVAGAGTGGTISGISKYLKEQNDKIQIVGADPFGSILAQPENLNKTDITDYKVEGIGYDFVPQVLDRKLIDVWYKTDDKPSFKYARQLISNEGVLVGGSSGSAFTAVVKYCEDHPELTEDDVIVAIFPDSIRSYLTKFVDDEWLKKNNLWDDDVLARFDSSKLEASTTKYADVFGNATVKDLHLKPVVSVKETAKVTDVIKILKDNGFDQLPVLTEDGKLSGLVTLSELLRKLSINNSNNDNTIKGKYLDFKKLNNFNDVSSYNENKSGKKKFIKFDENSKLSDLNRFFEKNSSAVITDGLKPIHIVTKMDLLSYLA
The experiment in a line: double-mixing stopped-flow, […] nm decay, koff/kon.

In experiment [2] the target is T1, yCBS (yeast cystathionine β-synthase). The experiment in a line: UV-visible spectrum of enzyme as isolated. The settings on record: internal aldimine with Lys53; covalent.
Experiment [3] has the same target. The experiment in a line: stopped-flow, aminoacrylate formation at […] nm, hyperbolic fit of kobs.

On to `N[C@@H](CCS)C(=O)O` [L-homocysteine], for which, in experiment [1], binding was characterised by a dissociation constant (Kd) of 0.37 ± 0.02 mM. Turning to `Cc1ncc(COP(=O)(O)O)c(C=O)c1O` [PLP], the “UV-visible spectrum of enzyme as isolated” value in experiment [2] was “protonated Schiff base (internal aldimine) between Lys53 in the active site and the PLP”. For `N[C@@H](CO)C(=O)O` [L-serine], the Kd in experiment [3] is 14.4 ± 1.7 mM.

(Values after article PMC3070160 (Biochemistry, 2010).)
